Results from patent US20200017495A1, “NOVEL HETEROCYCLIC COMPOUNDS AND THEIR USE IN PREVENTING OR TREATING BACTERIAL INFECTIONS” (priority 2017, published 2020).
Like-named read-outs stand apart in the source and are kept apart here.

How the values were obtained:
Test in all cases: MIC of compounds alone and combined with antibacterials, broth microdilution (CLSI)
Type in all cases: cell-based
[1] = tested on: Citrobacter freundii (CFR) isolates; conditions: Citrobacter freundii
Summary of the method: (§1)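 Antibacterial MICs in combination were determined at every compound concentration tested, alongside compound MICs alone. Bacteria grew in cation-adjusted Mueller-Hinton broth starting from 5.10^5 CFU/mL, incubated at 35° C for 16-20 h, and endpoints were the lowest concentrations with no visible growth.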

[2] = tested on: Klebsiella oxytoca (KOX) isolates; conditions: Klebsiella oxytoca
Summary of the method: as §1

[3] = tested on: Klebsiella pneumoniae (KPN) isolates; conditions: Klebsiella pneumoniae
Summary of the method: as §1

[4] = tested on: Morganella morganii (MMO) isolates; conditions: Morganella morganii
Summary of the method: as §1

[5] = tested on: Providencia rettgeri (PRE) isolates; conditions: Providencia rettgeri
Summary of the method: as §1

[6] = strain CFR UFR254, genotype VEB-1b, OXA-48, qnrA, read-out: MIC
[7] = strain KPN 6299, genotype TEM-1, SHV-11, OXA-163, read-out: MIC
[8] = strain KPN 700603, genotype SHV-18, OXA-2, read-out: MIC
[9] = strain KPN UFR77, genotype CMY-2, read-out: MIC
[10] = strain KPN UFR79, genotype DHA-1, OXA-1, read-out: MIC
[11] = strain KPN UFR80, genotype SHV-11, DHA-1, OXA-1, read-out: MIC
[12] = strain MMO UFR243, genotype DHA-1, read-out: MIC
[13] = strain MMO UFR244, genotype DHA-1, read-out: MIC
[14] = strain MMO UFR245, genotype DHA-1, read-out: MIC
[15] = strain MMO UFR246, genotype DHA-1, read-out: MIC
[16] = strain MMO UFR247, genotype DHA-1, read-out: MIC

For `C=CC1=C(C(=O)O)N2C(=O)[C@@H](NC(=O)/C(=N\O)c3csc(N)n3)[C@H]2SC1` [CDR, Cefdinir], the MIC ([1]; strain CFR UFR10, genotype OXA-48) was > 256 µg/mL, the MIC ([1]; strain CFR UFR11, genotype TEM-1, OXA-1, OXA-48) was > 256 µg/mL and the MIC ([1]; strain CFR UFR83, genotype TEM-3, AmpC) was > 256 µg/mL. The MIC ([1]; strain CFR UFR146, genotype TEM-1, KPC-2, read-out: MIC) was 256 µg/mL, the MIC ([1]; strain CFR UFR248, genotype CTX-M-15) was > 256 µg/mL and the MIC ([1]; strain CFR UFR249, genotype TEM-1, CTX-M-15) was > 256 µg/mL. For the same compound, the MIC ([1]; strain CFR UFR250, genotype TEM-1, SHV-28, CTX-M-15) was > 256 µg/mL, the MIC ([1]; strain CFR UFR253, genotype TEM-1, SHV-12, OXA-48) was > 256 µg/mL and the MIC [1, 6] was 256 µg/mL. For the same compound, the MIC [2] was > 256 µg/mL, the MIC ([3]; BAA1898, strain KPN BAA-1898, genotype TEM-1, SHV-11, SHV-12, KPC-2) was > 256 µg/mL and the MIC [3, 7] was 256 µg/mL. The MIC ([3]; strain KPN 110376, genotype TEM-1, SHV-1, CTX-M-15, OXA-1, OXA-48) was > 256 µg/mL, the MIC ([3]; strain KPN 131119, genotype TEM-1, SHV-11, CTX-M-15, OXA-1, OXA-48) was > 256 µg/mL and the MIC ([3]; strain KPN 140513, genotype TEM-1, SHV-11, CTX-M-15, KPC-3) was > 256 µg/mL. The MIC ([3]; strain KPN 160143, genotype TEM-1, SHV-1, CTX-M-15, KPC-2, OXA-1) was > 256 µg/mL, the MIC ([3]; strain KPN 190128, genotype TEM-1, SHV-32, CTX-M-15, OXA-1) was > 256 µg/mL and the MIC ([3]; strain KPN 190270, genotype TEM-1, SHV-76, CTX-M-15, OXA-1) was > 256 µg/mL. The MIC ([3]; strain KPN 190425, genotype TEM-1, SHV-1, CTX-M-15, OXA-1) was > 256 µg/mL, the MIC ([3]; strain KPN 190551, genotype TEM-1, SHV-1, CTX-M-15, OXA-1) was > 256 µg/mL and the MIC ([3]; strain KPN 200047, genotype TEM-1, SHV-32, CTX-M-15, OXA-1) was > 256 µg/mL. The MIC ([3]; strain KPN 200327, genotype TEM-1, SHV-1, CTX-M-15, OXA-1) was > 256 µg/mL, the MIC ([3]; strain KPN 260251, genotype TEM-1, SHV-11, SHV-12, CTX-M-15, KPC-2) was > 256 µg/mL and the MIC ([3]; strain KPN 260252, genotype TEM-1, SHV-11, KPC-3) was > 256 µg/mL. The MIC ([3]; strain KPN 260376, genotype SHV-1, SHV-49, OXA-1) was > 256 µg/mL, the MIC ([3]; strain KPN 270077, genotype TEM-1, SHV-1, CTX-M-15) was > 256 µg/mL and the MIC [3, 8] was 4 µg/mL. The MIC ([3]; strain KPN ARA, genotype TEM-1, SHV-11, CTX-M-15, OXA-1, OXA-48) was > 256 µg/mL, the MIC ([3]; strain KPN LIB, genotype SHV-11, OXA-48) was > 256 µg/mL and the MIC ([3]; strain KPN UFR22_O, genotype TEM-1, SHV-1, OXA-48) was > 256 µg/mL. The MIC ([3]; strain KPN UFR23, genotype TEM-1, SHV-1, OXA-48) was > 256 µg/mL, the MIC ([3]; strain KPN UFR24, genotype TEM-1, SHV-2, SHV-11, OXA-1, OXA-48, OXA-47) was > 256 µg/mL and the MIC ([3]; strain KPN UFR25, genotype TEM-1, SHV-11, CTX-M-15, OXA-162) was > 256 µg/mL. For the same compound, the MIC ([3]; strain KPN UFR27, genotype TEM-1, SHV-28, CTX-M-15, OXA-204) was > 256 µg/mL, the MIC ([3]; strain KPN UFR28, genotype TEM-1, SHV-1, CTX-M-15, OXA-1, OXA-232) was > 256 µg/mL and the MIC ([3]; strain KPN UFR65, genotype TEM-1, SHV-11, KPC-2) was > 256 µg/mL. For the same compound, the MIC ([3]; strain KPN UFR66, genotype TEM-1, SHV-11, CTX-M-15, KPC-2) was > 256 µg/mL, the MIC ([3]; strain KPN UFR67, genotype TEM-1, SHV-11, KPC-3) was > 256 µg/mL and the MIC ([3]; strain KPN UFR68, genotype TEM-1, SHV-11, CTX-M-15, KPC-3) was > 256 µg/mL. The MIC ([3]; strain KPN UFR76, genotype TEM-155, SHV-11, ACT-1, OXA-2) was > 256 µg/mL, the MIC [3, 9] was 64 µg/mL and the MIC ([3]; strain KPN UFR78, genotype TEM-1, SHV-1, CTX-M-15, CMY-2, OXA-1, OXA-48) was > 256 µg/mL. The MIC [3, 10] was 256 µg/mL, the MIC [3, 11] was 1 µg/mL and the MIC ([3]; strain KPN UFR81, genotype TEM-1, SHV-1, DHA-1, OXA-48) was > 256 µg/mL. For the same compound, the MIC ([3]; strain KPN UFR215, genotype SHV-27, CTX-M-15) was > 256 µg/mL, the MIC ([3]; strain KPN UFR216, genotype SHV-28, CTX-M-15) was > 256 µg/mL and the MIC ([3]; strain KPN UFR217, genotype TEM-1, SHV-1, CTX-M-15) was > 256 µg/mL. For the same compound, the MIC ([3]; strain KPN UFR219, genotype SHV-12, CTX-M-15) was > 256 µg/mL, the MIC ([3]; strain KPN UFR220, genotype TEM-1, SHV-12, DHA-1) was > 256 µg/mL and the MIC ([3]; strain KPN UFR221, genotype TEM-1, SHV-11, CTX-M-14, DHA-1, read-out: MIC) was 128 µg/mL. For the same compound, the MIC ([3]; strain KPN UFR222, genotype DHA-2) was > 256 µg/mL, the MIC ([3]; strain KPN UFR227O, genotype TEM-x, SHV-x, CTX-M-x) was > 256 µg/mL and the MIC [4] was > 256 µg/mL. For the same compound, the MIC ([4]; strain MMO 200321, genotype TEM-1, CTX-M-15, OXA-1, read-out: MIC) was 256 µg/mL, the MIC ([4]; strain MMO UFR144, genotype TEM-1, CTX-M-15, read-out: MIC) was 128 µg/mL and the MIC ([4]; strain MMO UFR240, genotype CTX-M-9, read-out: MIC) was 64 µg/mL. For the same compound, the MIC ([4]; strain MMO UFR241, genotype TEM-1, CTX-M-15, read-out: MIC) was 128 µg/mL, the MIC [4, 12] was 64 µg/mL and the MIC [4, 13] was 32 µg/mL. The MIC [4, 14] was 64 µg/mL, the MIC [4, 15] was 64 µg/mL and the MIC [4, 16] was 128 µg/mL. For the same compound, the MIC ([5]; strain PRE UFR99, genotype OXA-1, OXA-181) was > 256 µg/mL and the MIC ([5]; strain PRE UFR236, genotype TEM-1, OXA-48) was > 256 µg/mL.
`COCC1=C(C(=O)O)N2C(=O)[C@@H](NC(=O)/C(=N\OC)c3csc(N)n3)[C@H]2SC1` [POD, Cefpodoxime] showed an MIC ([1]; strain CFR UFR253, genotype TEM-1, SHV-12, OXA-48, read-out: MIC) of 32 µg/mL, an MIC [1, 6] of 32 µg/mL and an MIC ([2]; strain KOX UFR223, genotype SHV-11, OXA-48, read-out: MIC) of 0.5 µg/mL. The MIC ([3]; BAA1898, strain KPN BAA-1898, genotype TEM-1, SHV-11, SHV-12, KPC-2, read-out: MIC) was > 512 µg/mL, the MIC [3, 7] was 64 µg/mL and the MIC [3, 8] was 16 µg/mL. It also gave an MIC ([3]; strain KPN LIB, genotype SHV-11, OXA-48, read-out: MIC) of 1 µg/mL, an MIC ([3]; strain KPN UFR22_O, genotype TEM-1, SHV-1, OXA-48, read-out: MIC) of 1 µg/mL and an MIC ([3]; strain KPN UFR23, genotype TEM-1, SHV-1, OXA-48, read-out: MIC) of 0.5 µg/mL. For the same compound, the MIC [3, 9] was 64 µg/mL, the MIC [3, 10] was 32 µg/mL and the MIC [3, 11] was 2 µg/mL. For the same compound, the MIC [4, 12] was 64 µg/mL, the MIC [4, 13] was 16 µg/mL and the MIC [4, 14] was 64 µg/mL. For the same compound, the MIC [4, 15] was 64 µg/mL, the MIC [4, 16] was 64 µg/mL and the MIC ([5]; strain PRE UFR236, genotype TEM-1, OXA-48, read-out: MIC) was 64 µg/mL.
